Test results reported in patent US20260184669A1, “LIPID COMPOUND AND COMPOSITION FOR DELIVERY OF ACTIVE SUBSTANCE” (KOREA RESEARCH INSTIUTE OF BIOSCIENCE AND BIOTECHNOLOGY, priority 2022, published 2026).

Experiments:
[1] = Size, polydispersity index and surface charge of mRNA-LNP (Malvern Zetasizer Nano ZS90); type: physicochemical; settings: for PDI / size (nm) Number: mRNA-LNP made with the ionizable lipid at its optimal formulation (Table 2); for size (nm) Number: diluted with PBS to 1 μg/mL mRNA; for Zeta (mV): surface charge of mRNA-LNP made with the ionizable lipid at its optimal formulation (Table 2)
Experimental: Each mRNA-LNPs produced in Example 27 was diluted with PBS to a final mRNA concentration of 1 μg/mL. The size, polydispersity index (PDI), and surface charge of the mRNA-LNPs were then measured using a Malvern Zetasizer Nano ZS90 (Malvern Instruments, UK).
For particles intended for systemic administration, such as via blood vessels, the particle size must be less than 200 nm in order to pass through the endothelial capillaries of the liver. In addition, the size distribution is considered uniform only when the PDI is 0.3 or less, which enables consistent and efficient therapeutic effects (Non-patent document 3 [Danaei, M. et al). Pharmaceutics 2018, 10, 57]).

[2] = mRNA encapsulation efficiency (Quant-IT RiboGreen RNA assay); type: physicochemical; settings: mRNA encapsulation efficiency of mRNA-LNP made with the ionizable lipid; average of two measurements
Experimental: The mRNA encapsulation efficiency (EE, %) of LNPs containing mRNA was measured using the Quant-IT™ RiboGreen® RNA assay kit (Invitrogen, USA).
The diluted samples were added to each well of a 96-well plate. Group A (without Triton X-100) was supplemented with 50 μL of 1×TE buffer, while Group B (with Triton X-100) was supplemented with 50 μL of 1×TE buffer containing 2% Triton-X 100. To release the encapsulated mRNA, the LNPs were treated with Triton-X 100 and incubated at 37° C. for 10 minutes. Subsequently, 100 μL of ribogreen reagent was added to each well. The fluorescence intensities of Group A and Group B were measured using a multi-plate reader (λex 480 nm, λem 520 nm), and mRNA encapsulation efficiency (%) was calculated using Equation 1 below. The encapsulation efficiency for each LNP was determined as the average of two independent measurements.

[3] = Stability of mRNA-LNPs according to storage temperature and duration; type: physicochemical; settings: for Normalized EE % D-1 / Size (nm) D-1 / PDI D-1: day 1; for Normalized EE % D-7 / PDI D-7 / Size (nm) D-7: day 7; for Normalized EE % D-30 / PDI D-30 / Size (nm) D-30: day 30
Experimental: Stability of fLuc mRNA-LNPs produced using various ionizable lipids according to the method of Example 27, was assessed by storing the LNPs at 4° C. and 25° C. At 1, 7, and 30 days post-manufacture, the size, PDI, and encapsulation efficiency (EE) of each mRNA-LNPs samples were measured using the methods described in Experimental Examples 2 and 3.

female C57BL/6 mice = experiment: Protein expression efficiency of fLuc mRNA-LNPs after intramuscular injection (IVIS whole-body luminescence); type: in vivo; settings: for Total flux 1 hour / Total flux 3 hours / Total flux 6 hours / Total flux 48 hours / Total flux 72 hours / Total flux: fLuc mRNA-LNP, intramuscular injection, luminescence at injection site, mice; for Total flux 1 hour: 1 hour after administration; for Total flux 3 hours: 3 hours after administration; for Total flux 6 hours: 6 hours after administration; for Total flux 48 hours: 48 hours after administration; for Total flux 72 hours: 72 hours after administration; for Total flux: after administration; for Fold increase in total flux at 3 h, MC3: relative to control LNP formulated with MC3; for Fold increase in total flux at 3 h, MC3 / Fold increase in total flux at 3 h, SM-102: 3 hours after intramuscular injection; for Fold increase in total flux at 3 h, SM-102: relative to control LNP formulated with SM-102
Experimental: fLuc mRNA-LNPs formulated using various ionizable lipids were prepared according to the method described in Example 27 and administered in vivo via intramuscular (I. M.) or intravenous (IV.) injection to compare the resulting protein expression efficiency in vivo. As a control, EGFP mRNA-LNPs formulated with commercially available ionizable lipids MC3 or SM-102 were used. All mRNA-LNPs were administered at equal mRNA doses per body weight across different concentration groups (n≥4).
Specifically, the dose of mRNA-LNPs was adjusted to 0.1-0.5 mg/kg of body weight, and the formulation was administered via I.M. or I.V. injection to female C57BL/6 mice (6-10 weeks old, Orient Bio, Korea) Subsequently, […], whole-body luminescence images were acquired using an in vivo imaging system (IVIS Lumina III, PerkinElmer, Walzam, MA, USA). To assess protein expression levels, 200 μL of D-luciferin (15 mg/mL) was administered via intraperitoneal (I.P.) injection 10 minutes prior to imaging. During image acquisition, the animals were anesthetized by inhalation of 3% isoflurane in 97% medical grade oxygen. In addition, the acquired luminescence images were quantitatively analyzed using imaging software (Living Image Software Version 4.4; PerkinElmer, USA).
After intramuscular injection of the fLuc mRNA-LNPs, the luminescence intensity at the injection site was measured over time.
Furthermore, the luminescence intensity at the injection site 3 hours after intramuscular injection was measured, and the relative protein expression efficiency was compared to that of control LNPs formulated with MC3 or SM-102.

SMILES | PDI [1] | size (nm) Number [1] | Zeta (mV) [1] | EE (%) [2] | Normalized EE % D-1 ([3]; fLuc mRNA-LNP stored at 4° C.) | Size (nm) D-1 ([3]; fLuc mRNA-LNP stored at 4° C.) | Normalized EE % D-7 ([3]; fLuc mRNA-LNP stored at 4° C.) | PDI D-7 ([3]; fLuc mRNA-LNP stored at 4° C.) | Size (nm) D-7 ([3]; fLuc mRNA-LNP stored at 4° C.) | Normalized EE % D-30 ([3]; fLuc mRNA-LNP stored at 4° C.) | PDI D-30 ([3]; fLuc mRNA-LNP stored at 4° C.) | Size (nm) D-30 ([3]; fLuc mRNA-LNP stored at 4° C.) | Normalized EE % D-1 ([3]; fLuc mRNA-LNP stored at 25° C.) | PDI D-1 ([3]; fLuc mRNA-LNP stored at 25° C.) | Size (nm) D-1 ([3]; fLuc mRNA-LNP stored at 25° C.) | Normalized EE % D-7 ([3]; fLuc mRNA-LNP stored at 25° C.) | PDI D-7 ([3]; fLuc mRNA-LNP stored at 25° C.) | Size (nm) D-7 ([3]; fLuc mRNA-LNP stored at 25° C.) | Normalized EE % D-30 ([3]; fLuc mRNA-LNP stored at 25° C.) | PDI D-30 ([3]; fLuc mRNA-LNP stored at 25° C.) | further results
CCCCCCCCCCCOC(=O)CCCCCN(CCCCCCCC(=O)OC(CCCCCCCC)CCCCCCCC)CC(O)CCCCNC(=O)c1cncn1C (stereo not shown) [Compound 38, Heptadecan-9-yl 8-((2-hydroxy-6-(1-methyl-1H-imidazole-5-carboxamido)hexyl)(6-oxo-6-(undecyloxy)hexyl)amino)octanoate] | 0.132 | 142 nm | −4.28 mV | 88% | 88.5% | 142.2 nm | 91.1% | 0.086 | 141.1 nm | 87.6% | 0.086 | 147.3 nm | 89.5% | 0.132 | 142.2 nm | 88.0% | 0.093 | 140.4 nm | 86.1% | 0.041 | Size (nm) D-30 ([3]; fLuc mRNA-LNP stored at 25° C.): 152.0 nm; Total flux 1 hour (female C57BL/6 mice): 2.19E+07; Total flux 3 hours (female C57BL/6 mice): 4.19E+07; Total flux 6 hours (female C57BL/6 mice): 1.47E+07; Total flux 48 hours (female C57BL/6 mice): 7.89E+05; Total flux 72 hours (female C57BL/6 mice): 5.32E+05; Total flux (female C57BL/6 mice): 2.13E+06; Fold increase in total flux at 3 h, MC3 (female C57BL/6 mice): 3.39; Fold increase in total flux at 3 h, SM-102 (female C57BL/6 mice): 0.37
CCCCCCCCCCCOC(=O)CCCCCN(CCCCCCCC(=O)OC(CCCCCCCC)CCCCCCCC)CC(O)CCCCNC(=O)c1ncc[nH]1 (stereo not shown) [Compound 33, Heptadecan-9-yl 8-((2-hydroxy-6-(1H-imidazole-2-carboxamido)hexyl)(6-oxo-6-(undecyloxy)hexyl)amino)octanoate] | 0.145 | 113 nm | −8.94 mV | 90% | 90.0% | 112.8 nm | 83.3% | 0.079 | 120.3 nm | 89.3% | 0.113 | 115.6 nm | 90.0% | 0.145 | 112.8 nm | 82.1% | 0.133 | 122.9 nm | 87.2% | 0.113 | Size (nm) D-30 ([3]; fLuc mRNA-LNP stored at 25° C.): 106.4 nm; Total flux 1 hour (female C57BL/6 mice): 1.80E+06; Total flux 3 hours (female C57BL/6 mice): 1.17E+07; Total flux 6 hours (female C57BL/6 mice): 1.26E+07; Total flux 48 hours (female C57BL/6 mice): 4.56E+05; Total flux 72 hours (female C57BL/6 mice): 4.96E+05; Total flux (female C57BL/6 mice): 2.62E+06; Fold increase in total flux at 3 h, MC3 (female C57BL/6 mice): 0.94; Fold increase in total flux at 3 h, SM-102 (female C57BL/6 mice): 0.10
